Data: patent US10774051B2, “6-membered heterocyclic derivatives and pharmaceutical composition comprising the same” (Shionogi & Co., Ltd., priority 2015, dated 2020)

target: human P2X7 receptor (Homo sapiens, UniProt Q99572, R270H/Y155H); experiment: Evaluation of human P2X7 receptor inhibitory activity (Yo-Pro uptake, BzATP stimulation, FLIPR TETRA); format: cell-based; settings: 1321N1 cells stably expressing human P2X7 receptor; BzATP stimulation, Yo-Pro uptake; read-out: IC50 (antagonistic activity for the human P2X7 receptor)
Protocol: Stably expressing cell line (1321N1 cell transfected with the human P2X7 receptor gene (GenBank accession number NM_002562.5 including T606C and G952A SNP)) was used. The cells were seeded in a 384-well microtiter plate at a concentration of 8000 cells/well and cultured in the medium (10% fetal bovine serum, 25 mM HEPES, 1% penicillin and streptomycin in DMEM) for one day at 37° C. under 5% carbon dioxide atmosphere. After replacing with 20 μL of the HBSS buffer (20 mM HEPES, 55.6 mM D-glucose, 1×HBSS(−), pH7.4-7.5), 15 μL of 17.3 μM Yo-Pro solution in the HBSS buffer was added. The plate was placed in high-throughput cellular screening system FLIPR TETRA (Molecullar Devices, LLC.) and 15 μL of 130 μM BzATP solution in the HBSS buffer was added. Measurement of fluorescence intensity by FLIPR TETRA was started. After eight minutes, 15 μL of DMSO solutions containing different concentrations of the compound of the present invention as prepared by dilution with the HBSS buffer were dispensed to each well through the built-in automatic dispenser, and the measurement of fluorescence intensity was continued for 20 minutes. […] Changing values of fluorescence intensity by the compound of the present invention were calculated by difference between maximum and minimum fluorescence intensity for 20 minutes. Inhibition ratios (%) were calculated from the following equation:
[formula] IC50 was calculated using logistic approximation.

Row | SMILES | IC50
1 | COc1cn(Cc2ccccc2)c(Nc2cccc3sccc23)nc1=O [Compound I-0104] | 0.041 µM
2 | COc1cn(Cc2ccccc2)c(Nc2cccc3c2CCO3)nc1=O [Compound I-0120] | 0.67 µM
3 | COc1cn(Cc2ccccc2)c(NCc2cccc(Cl)c2C)nc1=O [Compound I-0121] | 0.28 µM
4 | Cc1c(Cl)cccc1Nc1nc(=O)c(OCc2ccccc2)cn1Cc1ccccc1 [Compound I-0149] | 0.026 µM
5 | COc1cn(Cc2ccccc2F)c(Nc2cc(C)c(C)cc2C)nc1=O [Compound I-0176] | 0.013 µM
6 | CCc1cc2c(cc1Nc1nc(=O)c(OC)cn1Cc1ccccc1F)CCC2 [Compound I-0178] | 0.021 µM
7 | COc1cn(Cc2ccccc2)c(Nc2cncc(Cl)c2C)nc1=O [Compound I-0185] | 0.27 µM
8 | CCc1cc2c(cc1Nc1nc(=O)c(F)cn1Cc1ccc(F)cc1)CCC2 [Compound I-0186] | 0.002 µM
9 | COc1cn(Cc2ccccc2)c(NC2CCc3ccccc3C2)nc1=O (stereo not shown) [Compound I-0187] | 0.23 µM
10 | COc1cn(Cc2ccccc2)c(Nc2cccc3c2CCCC3)nc1=O [Compound I-0190] | 0.071 µM

same assay, conditions: 1321N1 cells stably expressing human P2X7 receptor; BzATP stimulation, Yo-Pro uptake; read-out: IC50 (antagonistic activity for the human P2X7 receptor), class symbol

Row | SMILES | IC50
11 | COc1cn(Cc2ccccc2)c(Nc2cccc3occc23)nc1=O [Compound I-0103] | 0.1 to 0.5 µM
12 | CCc1ccccc1Nc1nc(=O)c(Cl)cn1Cc1ccccc1 [Compound I-0105] | 0.1 to 0.5 µM
13 | COc1cn(Cc2ccccc2)c(Nc2ccc(C)cc2C)nc1=O [Compound I-0106] | 0.01 to 0.1 µM
14 | CCc1ccccc1Nc1nc(=O)c(Br)cn1Cc1ccccc1 [Compound I-0107] | 0.1 to 0.5 µM
15 | Cc1cccc(Nc2nc(=O)c(Br)cn2Cc2ccccc2)c1C [Compound I-0108] | 0.01 to 0.1 µM
16 | CCCc1ccccc1Nc1nc(=O)c(OC)cn1Cc1ccccc1 [Compound I-0109] | 0.5 to 1 µM
17 | COc1cn(Cc2ccccc2)c(Nc2cccc(CO)c2C)nc1=O [Compound I-0110] | 0.1 to 0.5 µM
18 | Cc1c(Cl)cccc1Nc1nc(=O)c(C(=O)OC(C)(C)C)cn1Cc1ccccc1 [Compound I-0111] | 0.1 to 0.5 µM
19 | Cc1cccc(Nc2nc(=O)c(C(=O)O)cn2Cc2ccccc2)c1Cl [Compound I-0112] | 0.01 to 0.1 µM
20 | COc1ccccc1CNc1nc(=O)c(OC)cn1Cc1ccccc1 [Compound I-0113] | 0.5 to 1 µM
21 | CCc1ccccc1CNc1nc(=O)c(OC)cn1Cc1ccccc1 [Compound I-0114] | 0.1 to 0.5 µM
22 | COc1cccc(Nc2nc(=O)c(OC)cn2Cc2ccccc2)c1Cl [Compound I-0115] | 0.01 to 0.1 µM
23 | CCc1cc2c(cc1Nc1nc(=O)c(OC)cn1Cc1ccccc1)CCC2 [Compound I-0116] | < 0.01 µM
24 | COc1cn(Cc2ccccc2)c(Nc2cccc3c2ccn3C)nc1=O [Compound I-0117] | 0.01 to 0.1 µM
25 | COc1cn(Cc2ccccc2)c(Nc2ccccc2Cc2ccccc2)nc1=O [Compound I-0118] | 0.01 to 0.1 µM
26 | COc1cn(Cc2ccccc2)c(Nc2cc(C)c(C)cc2C)nc1=O [Compound I-0124] | < 0.01 µM
27 | COc1cn(Cc2ccccc2Cl)c(Nc2cccc(Cl)c2C)nc1=O [Compound I-0125] | 0.01 to 0.1 µM
28 | COc1cn(Cc2cccc(Cl)c2)c(Nc2cccc(Cl)c2C)nc1=O [Compound I-0126] | 0.01 to 0.1 µM
29 | COc1cn(Cc2ccc(Cl)cc2)c(Nc2cccc(Cl)c2C)nc1=O [Compound I-0127] | 0.01 to 0.1 µM
30 | Cc1cccc(Nc2nc(=O)c(F)cn2Cc2ccccc2)c1C [Compound I-0128] | 0.01 to 0.1 µM
31 | COc1cn(Cc2ccccc2)c(Nc2cccc(OC(C)C)c2C)nc1=O [Compound I-0129] | 0.1 to 0.5 µM
32 | COc1c(C)cccc1Nc1nc(=O)c(OC)cn1Cc1ccccc1 [Compound I-0130] | 0.1 to 0.5 µM
33 | COc1cn(Cc2ccccc2)c(NCc2c(C)cccc2C)nc1=O [Compound I-0131] | 0.1 to 0.5 µM

Row | SMILES | IC50
34 | COc1cn(Cc2ccccc2)c(Nc2ccc(Cl)c(Cl)c2Cl)nc1=O [Compound I-0132] | 0.1 to 0.5 µM
35 | COc1cn(Cc2ccccc2)c(Nc2cccc(OC(F)F)c2Cl)nc1=O [Compound I-0133] | 0.1 to 0.5 µM
36 | COc1cn(Cc2ccccc2)c(Nc2cccc3[nH]c(C)cc23)nc1=O [Compound I-0134] | 0.01 to 0.1 µM
37 | CCc1cccc(Nc2nc(=O)c(OC)cn2Cc2ccccc2)c1CC [Compound I-0136] | < 0.01 µM
38 | CCOc1cn(Cc2ccccc2)c(Nc2cccc(Cl)c2C)nc1=O [Compound I-0137] | 0.01 to 0.1 µM
39 | COc1cn(Cc2ccccc2)c(Nc2cccc(Oc3ccccc3)c2C)nc1=O [Compound I-0138] | 0.5 to 1 µM
40 | Cc1cccc(Nc2nc(=O)c(F)cn2Cc2ccc(F)cc2)c1C [Compound I-0139] | < 0.01 µM
41 | CCc1ccccc1Nc1nc(=O)c(F)cn1Cc1ccc(F)cc1 [Compound I-0140] | 0.01 to 0.1 µM
42 | COc1cn(Cc2ccc(F)cc2)c(Nc2cccc(C)c2C)nc1=O [Compound I-0141] | 0.01 to 0.1 µM
43 | Cc1c(Cl)cccc1Nc1nc(=O)c(OC(C)C)cn1Cc1ccccc1 [Compound I-0142] | 0.01 to 0.1 µM
44 | COc1cn(Cc2ccccc2)c(Nc2cc(C(C)C)ccc2C)nc1=O [Compound I-0143] | 0.01 to 0.1 µM
45 | COc1cn(Cc2ccccc2)c(Nc2cc(Br)ccc2Cl)nc1=O [Compound I-0144] | 0.1 to 0.5 µM
46 | COc1cn(Cc2ccccc2)c(Nc2cc(Cl)cc(Cl)c2Cl)nc1=O [Compound I-0145] | 0.01 to 0.1 µM
47 | COc1cn(Cc2ccccc2)c(Nc2cc(C)ccc2Cl)nc1=O [Compound I-0146] | 0.01 to 0.1 µM
48 | COc1ccc(Nc2nc(=O)c(OC)cn2Cc2ccccc2)c(C)c1 [Compound I-0147] | 0.01 to 0.1 µM
49 | Cc1ccc(N2CCCS2(=O)=O)cc1Nc1nc(=O)c(F)cn1Cc1ccccc1 [Compound I-0148] | 0.01 to 0.1 µM
50 | COC(=O)c1ccc(C)c(Nc2nc(=O)c(OC)cn2Cc2ccccc2)c1 [Compound I-0150] | 0.1 to 0.5 µM
51 | COc1ccc(Cl)c(Nc2nc(=O)c(OC)cn2Cc2ccccc2)c1 [Compound I-0152] | 0.1 to 0.5 µM
52 | Cc1cccc(C)c1Nc1nc(=O)c(F)cn1Cc1ccccc1 [Compound I-0153] | 0.01 to 0.1 µM
53 | COc1cn(Cc2ccccc2)c(Nc2cc(Cl)c(Cl)cc2Cl)nc1=O [Compound I-0154] | 0.1 to 0.5 µM
54 | COc1cn(Cc2ccccc2)c(Nc2cc([N+](=O)[O-])ccc2C)nc1=O [Compound I-0155] | 0.5 to 1 µM
55 | COc1cn(Cc2ccccc2)c(Nc2cc(O)ccc2Cl)nc1=O [Compound I-0156] | 0.1 to 0.5 µM
56 | CCc1ccccc1Nc1nc(=O)c(F)cn1Cc1ccccc1 [Compound I-0157] | 0.01 to 0.1 µM

Row | SMILES | IC50
57 | Cc1cccc(Nc2nc(=O)c(Cl)cn2Cc2ccccc2)c1C [Compound I-0158] | 0.01 to 0.1 µM
58 | CCc1cc(Cl)ccc1Nc1nc(=O)c(OC)cn1Cc1ccccc1 [Compound I-0161] | 0.01 to 0.1 µM
59 | COc1cn(Cc2ccc(F)cc2)c(Nc2cc(C)c(C)cc2C)nc1=O [Compound I-0162] | < 0.01 µM
60 | CCc1cc2c(cc1Nc1nc(=O)c(OC)cn1Cc1ccc(F)cc1)CCC2 [Compound I-0163] | < 0.01 µM
61 | CCc1cc2c(cc1Nc1nc(=O)c(OC)cn1Cc1cccc(Cl)c1)CCC2 [Compound I-0164] | < 0.01 µM
62 | COc1cn(Cc2cccc(Cl)c2)c(Nc2cc(C)c(C)cc2C)nc1=O [Compound I-0165] | < 0.01 µM
63 | COc1cn(Cc2ccc(F)c(Cl)c2)c(Nc2cccc(Cl)c2C)nc1=O [Compound I-0166] | < 0.01 µM
64 | COc1cn(Cc2ccccc2F)c(Nc2cc(C)c(Cl)cc2C)nc1=O [Compound I-0167] | 0.01 to 0.1 µM
65 | COc1cn(Cc2cccc(F)c2)c(Nc2cc(C)c(Cl)cc2C)nc1=O [Compound I-0168] | < 0.01 µM
66 | COc1cn(Cc2ccc(F)cc2)c(Nc2cc(C)c(Cl)cc2C)nc1=O [Compound I-0169] | < 0.01 µM
67 | COc1cn(Cc2ccccc2Cl)c(Nc2cc(C)c(Cl)cc2C)nc1=O [Compound I-0170] | 0.1 to 0.5 µM
68 | COc1cn(Cc2ccc(Cl)cc2)c(Nc2cc(C)c(Cl)cc2C)nc1=O [Compound I-0171] | 0.01 to 0.1 µM
69 | COc1cn(Cc2cccc(Cl)c2)c(Nc2cc(C)c(Cl)cc2C)nc1=O [Compound I-0172] | 0.01 to 0.1 µM
70 | COc1cn(Cc2ccccc2)c(N[C@@H]2CCCc3ccccc32)nc1=O [Compound I-0173] | 0.1 to 0.5 µM
71 | CCc1ccc(Cl)cc1Nc1nc(=O)c(OC)cn1Cc1ccccc1 [Compound I-0175] | 0.01 to 0.1 µM
72 | COc1cn(Cc2cccc(F)c2)c(Nc2cc(C)c(C)cc2C)nc1=O [Compound I-0177] | < 0.01 µM
73 | CCc1cc2c(cc1Nc1nc(=O)c(OC)cn1Cc1cccc(F)c1)CCC2 [Compound I-0179] | < 0.01 µM
74 | COc1cn(Cc2ccccc2)c(Nc2cc(CO)ccc2C)nc1=O [Compound I-0180] | 0.01 to 0.1 µM
75 | COc1cn(Cc2ccccc2)c(Nc2cc(C(N)=O)ccc2Cl)nc1=O [Compound I-0181] | 0.5 to 1 µM
76 | COc1cc(C)c(Nc2nc(=O)c(OC)cn2Cc2ccccc2)cc1OC [Compound I-0182] | < 0.01 µM
77 | COc1cc(C)c(Nc2nc(=O)c(F)cn2Cc2ccccc2)cc1OC [Compound I-0183] | 0.01 to 0.1 µM
78 | COc1cn(Cc2ccccc2)c(Nc2ccc(Br)cc2Cc2ccccc2)nc1=O [Compound I-0184] | 0.1 to 0.5 µM
79 | COc1cn(Cc2ccccc2)c(Nc2ccc(OC(C)C)cc2C)nc1=O [Compound I-0191] | 0.1 to 0.5 µM
